# Measured values reported in patent US4579865A, “Benzofuranyl carbamates” (USV Pharmaceutical Corp., priority 1984, dated 1986).
# Key:
# Canine cardiac lipases = assay: Myocardial lipase assay; assay type: biochemical; settings: triolein emulsion, pH 6.8, read-out: Lipase I50
# Experimental: All compounds were dissolved in DMSO (final concentration 3.0%) and tested in duplicate at a concentration of 100 μM. Canine cardiac lipases were obtained by extracting washed heart membranes with buffer plus heparin and a small amount of Triton X-100 detergent. Because these enzymes are only active at an oil-water interface, the enzyme reaction is run in an oil-water emulsion that contains triolein substrate, Tris buffer (50 mM, pH 6.8) and a small amount of bovine serum albumin (0.5%) added to stabilize the emulsion. A small amount of tritiated triolein was added to the unlabelled triolein substrate. Tritium-labelled oleic acid released by the lipases was extracted into hexane, separated from unreacted triolein and counted in a scintillation counter. Inhibitory agents reduce the amount of radioactivity appearing in the free fatty acid fraction isolated in the extraction procedure.
# In Vivo Lipolysis = assay: In vivo lipolysis assay (serum unesterified fatty acids in fasted rats); parameters: species or system rat; settings: 2 hours after drug
# rat adipocyte lipolysis = assay: Rat adipocyte assay (epinephrine-stimulated lipolysis, glycerol release); assay type: cell-based; settings: rat adipocytes, epinephrine 3 μM plus methylisobutylxanthine 10 μM, 1 hour 37° C., read-out: Adipocyte I50
# Experimental: Abdominal fat pads were removed from male rats weighing 200-250 grams and placed in Krebs-bicarbonate buffer gassed with 95% O2 /5% CO2. The fat pads were digested with collagenase for 1 hour at 37° C., washed twice with Krebs-bicarbonate buffer and distributed among a set of 20 ml plastic counting vials. Two such vials received only buffer and cells (4 ml) but no agonists or antagonists. The remaining vials received epinephrine (3 μM) plus the phosphodiesterase inhibitor methylisobutylxanthine (10 μM). Test compounds were dissolved in DMSO or water to a concentration of […] and 40 μl was added to the buffer plus cells in the counting vials. The final compound concentration for routine screening was 200 μM (final concentration of DMSO=1%).
# The cells were incubated for 1 hour at 37° C. under a 95% O2 /5% CO2 atmosphere. The incubation was stopped by placing the vials in crushed ice. The cells and medium were transferred to test tubes, centrifuged and the cell layer removed by aspiration. The aqueous phase was assayed for glycerol using the enzyme glycerol dehydrogenase. The glycerol dihydrogenase assay for glycerol depends on the enzyme catalyzed conversion of glycerol to glyceraldehyde and NAD to NADH. The assay can detect as little as 5-10 nanomoles of glycerol. The aqueous phase, following removal of cells, usually contained about 50 to 80 nanomoles of glycerol per 300 μl of assayed sample if no inhibitory activity was present. Samples from the control tubes (no agonist) usually contained 0-5 nanomoles of glycerol per 300 μl of sample.
Compound,IC50 (Canine cardiac lipases),In Vivo Lipolysis % Inhib. at mg/Kg (In Vivo Lipolysis; 25 mg/Kg p.o.),IC50 (rat adipocyte lipolysis),In Vivo Lipolysis % Inhib. at mg/Kg (In Vivo Lipolysis; 100 mg/Kg p.o.),In Vivo Lipolysis % Inhib. at mg/Kg (In Vivo Lipolysis; 100 mg/Kg i.p.)
"COc1ccc(NC(=O)Oc2cccc3ccoc23)cc1 [Example 1, 7-Benzofuranyl N-(4-methoxyphenyl)carbamate]",16 µM,97%,0.3 µM,,
"COc1ccc(NC(=O)Oc2cccc3ccoc23)c(OC)c1 [Example 2, 7-Benzofuranyl N-(2,4-dimethoxy)phenyl carbamate]",40 µM,,0.3 µM,71%,
"O=C(NC1CCCCC1)Oc1cccc2ccoc12 [Example 3, 7-Benzofuranyl N-(cyclohexyl)carbamate]",10 µM,,12 µM,26%,
"COc1ccc(NC(=O)Oc2cccc3ocnc23)cc1 [Example 4, 4-Benzoxazoyl N-(4-methoxyphenyl)carbanamate]",79 µM,,2.4 µM,,40%
